Source: patent publication US12297203B2, “Pyrrolopyrimidine ITK inhibitors” (ACLARIS THERAPEUTICS, INC., priority 2018, dated 2025)
pIC50: −log10 of the molar value.

Assays:
ITK = ITK (Homo sapiens (Human), UniProt Q08881); assay: ITK inhibitor binding potency (LanthaScreen competitive binding assay); settings: read-out: ITK Inh. IC50
Excerpt: The ability of candidate compounds to interact with ITK is quantitated by a competitive binding assay using the LanthaScreen technology developed by Life Technologies. This assay is based on the binding of a proprietary, Alexa Fluor® 647-labeled, ATP-competitive kinase inhibitor (kinase tracer-236) to the ITK expression construct in the presence of a Europium-conjugated antibody, resulting in a FRET (fluorescence resonance energy transfer) signal. Displacement of the kinase tracer by compound results in a lower emission ratio upon excitation of the Europium chelate. Candidate compounds are designed as potential irreversible inhibitors of ITK, capable of ligating to an active site cysteine residue resulting in time dependent covalent binding. The time dependent nature of irreversible inhibition is investigated by performing the binding assay with and without a pre-incubation of compound and ITK. […] The inhibitory potency of candidate compounds is measured in 20 mM HEPES pH 7.5, 10 mM MgCl2, 0.01% BSA, 0.0005% Tween-20, and 2% DMSO in the presence of 10 nM ITK, 2 nM Eu-anti-GST antibody, and 50 nM kinase tracer-236 using a 384-well plate format. Background signal is defined in the absence of ITK and uninhibited signal is defined in the presence of vehicle (2% DMSO) alone. Compounds were evaluated in an 11 point dose-response ranging from 20 uM to 0.34 nM. The binding assays are performed under two preincubation conditions to evaluate time dependence of inhibition. For the pre-incubation assay, ITK and Eu-anti-GST antibody are pre-incubated with compound or vehicle for two hours prior to the addition of kinase tracer. The non-preincubated assay is run under conditions where ITK and Eu-anti-GST antibody are added to a mixture of compound and kinase tracer. IC50 values of compounds are determined using a 4 parameter logistical fit of emission ratio as a function of the concentration of compound.

JAK3 = JAK3 (Homo sapiens (Human), UniProt P52333); assay: JAK3 enzyme activity assay (Caliper mobility shift); assay type: biochemical; settings: ATP at Km level; read-out: JAK3 Inh. IC50
JAK3, sequence (P52333 781-1124): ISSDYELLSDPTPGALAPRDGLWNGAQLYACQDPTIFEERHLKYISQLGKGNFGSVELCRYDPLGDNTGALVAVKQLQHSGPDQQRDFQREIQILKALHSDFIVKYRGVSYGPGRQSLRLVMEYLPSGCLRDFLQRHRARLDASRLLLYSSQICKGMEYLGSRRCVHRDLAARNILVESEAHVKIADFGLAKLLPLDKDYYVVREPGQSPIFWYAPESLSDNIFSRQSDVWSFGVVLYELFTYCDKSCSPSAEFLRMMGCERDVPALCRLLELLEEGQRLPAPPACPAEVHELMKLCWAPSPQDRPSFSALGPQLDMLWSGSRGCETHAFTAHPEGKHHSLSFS
Excerpt: The ability of candidate compounds to interact with JAK3 is quantitated by a mobility shift assay using an LC3000 instrument developed by Caliper Life Sciences. This assay is based on mobility shift electrophoresis, in which fluorescently labelled product and fluorescently labelled substrate peaks are separated and detected independently. JAK3 product/substrate separation is obtained using the following instrument settings: Pressure=−1.4 psi, Downstream voltage=−2550V and Upstream voltage=−800V. The inhibitory potency of candidate compounds of JAK3 is measured in 20 mM HEPES pH 7.5, 10 mM MgCl2, 0.01% BSA, 0.0005% Tween-20, and 2% DMSO in the presence of 2.5 nM JAK3 (Life Technologies Catalog #PV3855), […] (Anaspec Catalog #AS-64106) and […] (Km level) using a 384-well plate format. Background signal is defined in the absence of enzyme and uninhibited signal is defined in the presence of vehicle (2% DMSO) alone. Compounds were evaluated in an 11 point dose-response ranging from […] to 0.34 nM. IC50 values of compounds are determined using a 4 parameter logistical fit of emission ratio as a function of the concentration of compound.

[1] = tested on: ITK phosphorylation of its substrate, PLCγ1, at Y783; assay: ITK target modulation assay (PLCγ1 Y783 phosphorylation, anti-CD3 stimulated Jurkat T cells); assay type: cell-based; settings: Homo sapiens, Jurkat, anti-CD3 Dynabeads stimulation, read-out: PLC-γ Inh. IC50
Description: Target modulation was based upon the ability of a compound to inhibit ITK phosphorylation of its substrate, PLCγ1, at Y783. Human Jurkat T cells (ATCC TIB-152) were plated in V-bottom 96 well plates at 400,000 cells/well in 80 μL medium (RPMI1640 with 10% heat inactivated serum and 55 μM 2-mercaptoethanol and supplemented with glutamine/penicillin/streptomycin). Compounds were added as 10 μL of 10× working stock solutions in medium with 1% DMSO (or medium with 1% DMSO for controls) and placed in a 37° C. incubator with gentle shaking for 1 hour. Stimulation was carried out using anti-CD3 Dynabeads (Invitrogen catalog #1151D) to activate the T cell receptor and mimic antigen presenting cells. Beads were washed and resuspended in medium at 1.84×10^8 beads/ml. Beads were added rapidly to all compound containing and stimulation only wells at 10 μL/well (bead:cell=2:1) with gentle mixing of the bead source between each addition. Wells designated ‘unstimulated’ received 10 μL of media only. The plate was immediately sealed with a plate seal and cells pelleted at 400× g for 4 minutes. Media was removed using a multichannel aspirator, 25 μL of cold hypotonic lysis buffer (VWR M334-100 ml) plus 1×HALT Protease Inhibitor Cocktail (ThermoFisher #78437), 1× Phosphatase Inhibitor Cocktail 2 (Sigma Aldrich #P5726), 1× Phosphatase Inhibitor Cocktail 3 (Sigma Aldrich #P0044) and 2 mM PMSF was added per well. Cells were incubated on ice for 30 minutes to swell the cells then lysed by pipetting 20 times using a multichannel pipet. The plates were then resealed and centrifuged for 5 minutes at 400× g to pellet the cellular debris. Two μL of the soluble component of each sample was spotted onto nitrocellulose and allowed to dry for 30 minutes. Nitrocellulose was wet in 1× Tris Buffer Saline (20 mM Tris pH7.5, 150 mM NaCl) then blocked in LiCOR Odyssey Blocking Buffer (TBS) (LiCOR #927-50000) for 1 hour at room temperature with rocking. Following blocking, nitrocellulose was incubated in LiCOR Odyssey Blocking Buffer (TBS) plus 0.2% Tween20 plus anti-phospho-PLCγ1 (Y783) antibody (CST #2821S) at 1:1000 and anti-PLCγ1 (Abcam #41433) at 1:5000 with gentle rocking overnight at 4° C. Nitrocellulose was then washed four times for 5 minutes each with TBS plus 0.1% Tween20 (TBST) then incubated in LiCOR Odyssey Blocking Buffer (TBS) plus 0.2% Tween20 plus secondary antibodies IRDye 800CW (LiCOR 926-32211) and IRDye 680RD (LiCOR 926-68070) both at 1:15,000 with gentle rocking at room temperature in the dark for 1 hour. Nitrocellulose was then washed four times for 5 minutes each with TBST at room temperature in the dark. A final rinse with TBS was done prior to imaging and quantifying using the LiCOR Odyssey Imager and software respectively.

[2] = tested on: JAK1/3 phosphorylation of its substrate, STAT5, at Y694; assay: JAK1/3 target modulation assay (IL-2 stimulated STAT5 Y694 phosphorylation in PBMC); assay type: cell-based; settings: Homo sapiens, PBMC, Primary human peripheral blood mononuclear cells, IL-2 25 ng/mL; read-out: IL2-STAT5 Inh. IC50
Description: Target modulation was based upon the ability of a compound to inhibit JAK1/3 phosphorylation of its substrate, STAT5, at Y694. Primary human peripheral blood mononuclear cells were plated in V-bottom 96 well plates at 200,000 cells/well in 120 μL medium (RPMI-1640 with 10% fetal bovine serum, 10 mM HEPES buffer, 12.2 mM 2-mercaptoethanol, and supplemented with glutamine/penicillin/streptomycin). Compounds were added as 15 μL of 10× working stock solutions in medium with 1% DMSO (or medium with 1% DMSO for controls) and placed in a 37° C. incubator with gentle shaking for 1 hour. Stimulation was carried out using recombinant human IL-2 (R&D Systems #202-IL-050) to activate JAK1/3. IL-2 stock solution was diluted in media to 250 ng/mL and was added rapidly to all compound containing and stimulation only wells at 15 μL/well (final concentration=25 ng/mL). Wells designated ‘unstimulated’ received 15 μL of media only. The plate was placed back in a 37° C. incubator with gentle shaking for 5 minutes. After stimulation, the plates were immediately sealed with a plate seal, and cells pelleted at 400× g for 5 minutes. Media was removed using a multichannel aspirator, and 75 μL of cold Tris lysis buffer (MSD #R60TX-3) plus 1× Protease Inhibitor Solution (MSD #R70AA-1), 1× Phosphatase Inhibitor I (MSD #R70AA-1), and 1× Phosphatase Inhibitor II (MSD #R70AA-1) was added per well. Cells were incubated at 4° C. with gentle shaking for at least 30 minutes to allow for complete lysis. The plates were removed from 4° C., and 25 μL of lysate from each well was added to the corresponding well on the MSD plate. Samples were analyzed by either an MSD multiplex kit for Phospho-STAT5a,b/Total-STAT5a,b (MSD #K15163D) or an MSD single-plex kit for Phospho-STAT5a,b (MSD #K150IGD). The protocols for the respective kits were followed, and the plates were read on the MSD SECTOR S 600.

ITK, sequence (Q08881 whole entry): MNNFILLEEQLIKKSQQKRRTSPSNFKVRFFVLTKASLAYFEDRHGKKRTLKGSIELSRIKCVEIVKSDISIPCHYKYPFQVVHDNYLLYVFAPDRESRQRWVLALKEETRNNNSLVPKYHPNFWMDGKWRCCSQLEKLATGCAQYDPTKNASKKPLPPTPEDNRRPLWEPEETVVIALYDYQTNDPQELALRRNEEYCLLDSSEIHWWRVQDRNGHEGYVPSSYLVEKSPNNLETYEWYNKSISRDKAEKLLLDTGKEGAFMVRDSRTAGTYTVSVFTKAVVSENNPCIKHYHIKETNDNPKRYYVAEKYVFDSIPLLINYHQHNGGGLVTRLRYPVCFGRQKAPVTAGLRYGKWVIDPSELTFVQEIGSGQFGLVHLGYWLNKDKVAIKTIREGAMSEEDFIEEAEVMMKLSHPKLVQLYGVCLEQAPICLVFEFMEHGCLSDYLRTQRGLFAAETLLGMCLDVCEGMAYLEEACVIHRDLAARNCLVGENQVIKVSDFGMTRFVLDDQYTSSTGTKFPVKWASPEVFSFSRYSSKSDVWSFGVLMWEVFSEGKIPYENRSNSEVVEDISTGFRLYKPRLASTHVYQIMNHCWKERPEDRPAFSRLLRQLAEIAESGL

Compound	pIC50 (ITK)	pIC50 (JAK3)	pIC50 [1]	pIC50 [2]
C=C(C)C(=O)N1C[C@H](Nc2ncnc3[nH]cc([C@H]4CC4(F)F)c23)CC[C@@H]1C (single isomer, unassigned) [Example 62]	< 7.00	< 7.00	6.00 to 7.00	< 6.00
C=CC(=O)N1C[C@H](Nc2ncnc3[nH]cc([C@H]4CC4(F)F)c23)CC[C@@H]1C(C)C (single isomer, unassigned) [Example 63]	< 7.00	< 7.00	< 6.00	< 6.00
C=CC(=O)N1C[C@H](Nc2ncnc3[nH]cc([C@@H]4CC4(F)F)c23)CC[C@@H]1C(C)C (single isomer, unassigned) [Example 64]	< 7.00	< 7.00	< 6.00	< 6.00
C=CC(=O)N1C[C@@H](Nc2ncnc3[nH]cc([C@H]4CC4(F)F)c23)CC[C@H]1C(C)C (single isomer, unassigned) [Example 65]	≥ 8.00	≥ 8.00	≥ 7.00	6.00 to 7.00
C=CC(=O)N1C[C@@H](Nc2ncnc3[nH]cc([C@@H]4CC4(F)F)c23)CC[C@H]1C(C)C (single isomer, unassigned) [Example 66]	7.00 to 8.00	7.00 to 8.00	6.00 to 7.00	< 6.00
C=CC(=O)N1C[C@H](Nc2ncnc3[nH]cc([C@H]4CC4(F)F)c23)CC[C@@H]1CC (single isomer, unassigned) [Example 67]	< 7.00	< 7.00	< 6.00	< 6.00
C=CC(=O)N1C[C@H](Nc2ncnc3[nH]cc([C@@H]4CC4(F)F)c23)CC[C@@H]1CC (single isomer, unassigned) [Example 68]	≥ 8.00	≥ 8.00	≥ 7.00	≥ 7.00
C=CC(=O)N1C[C@@H](Nc2ncnc3[nH]cc([C@H]4CC4(F)F)c23)CC[C@H]1CC (single isomer, unassigned) [Example 69]	7.00 to 8.00	7.00 to 8.00	6.00 to 7.00	< 6.00
C=CC(=O)N1C[C@@H](Nc2ncnc3[nH]cc([C@@H]4CC4(F)F)c23)CC[C@H]1CC (single isomer, unassigned) [Example 70]	≥ 8.00	≥ 8.00	6.00 to 7.00	6.00 to 7.00
C=C(C)C(=O)N1C[C@H](Nc2ncnc3[nH]cc([C@@H]4CC4(F)F)c23)CC[C@@H]1C (single isomer, unassigned) [Example 71]	< 7.00	< 7.00	< 6.00	< 6.00
C=CC(=O)N1C[C@H](Nc2ccnc3[nH]cc([C@H]4CC4(F)F)c23)CC[C@@H]1C (single isomer, unassigned) [Example 73]	≥ 8.00	≥ 8.00	≥ 7.00	≥ 7.00
C=CC(=O)N1C[C@H](Nc2ccnc3[nH]cc([C@@H]4CC4(F)F)c23)CC[C@@H]1C (single isomer, unassigned) [Example 74]	≥ 8.00	≥ 8.00	6.00 to 7.00	6.00 to 7.00
C=CC(=O)N1C[C@H](Nc2ccnc3[nH]cc([C@H]4C[C@@H]4COC)c23)CC[C@@H]1C (single isomer, unassigned) [Example 76]	< 7.00	7.00 to 8.00	< 6.00	< 6.00
C=CC(=O)N1C[C@H](Nc2ccnc3[nH]cc([C@@H]4C[C@H]4COC)c23)CC[C@@H]1C (single isomer, unassigned) [Example 77]	≥ 8.00	≥ 8.00	6.00 to 7.00	6.00 to 7.00
C=CC(=O)N1CCC[C@@H](Nc2ncnc3[nH]cc([C@]45CCC[C@H]4C5(F)F)c23)C1 (single isomer, unassigned) [Example 80]	7.00 to 8.00	≥ 8.00	< 6.00	< 6.00
